Laboratory results reported in patent publication US7595334B2, “Broadspectrum 2-(substituted-amino)-benzoxazole sulfonamide HIV protease inhibitors” (Tibotec Pharmaceuticals Ltd., priority 2001, dated 2009).

Experiments:
[1] = tested on: mock-infected MT4 cells; test: in vitro
Procedure: (§1) HIV- or mock-infected MT4 cells were incubated for five days in the presence of various concentrations of the inhibitor. […] Cell viability is measured by measuring the concentration of MTT, a yellow, water soluble tetrazolium dye that is converted to a purple, water insoluble formazan in the mitochondria of living cells only. Upon solubilization of the resulting formazan crystals with isopropanol, the absorbance of the solution is monitored at 540 nm. The values correlate directly to the number of living cells remaining in the culture at the completion of the five day incubation. The inhibitory activity of the compound was monitored on the virus-infected cells and was expressed as EC50 and EC90. These values represent the amount of the compound required to protect 50% and 90%, respectively, of the cells from the cytopathogenic effect of the virus. The toxicity of the compound was measured on the mock-infected cells and was expressed as CC50, which represents the concentration of compound required to inhibit the growth of the cells by 50%. The selectivity index (SI) (ratio CC50/EC50) is an indication of the selectivity of the anti-HIV activity of the inhibitor. Wherever results are reported as e.g. pEC50 or pCC50 values, the result is expressed as the negative logarithm of the result expressed as EC50 or CC50 respectively.
(§2) As a measure of the broad spectrum activity of the present compounds, the fold resistance (FR), defined as FR=EC50(mutant strain)/EC50(HIV-1 strain LAI), was determined.

[2] = tested on: HIV strain D (clinically isolated, protease mutations); format: cell-based; details: FR=EC50(mutant strain D)/EC50(HIV-1 strain LAI)
Procedure: as §1, §2

[3] = tested on: HIV strain B (clinically isolated, protease mutations); format: cell-based; details: FR=EC50(mutant strain B)/EC50(HIV-1 strain LAI)
Procedure: as §1, §2

[4] = tested on: HIV strain C (clinically isolated, protease mutations); format: cell-based; details: FR=EC50(mutant strain C)/EC50(HIV-1 strain LAI)
Procedure: as §1, §2

[5] = tested on: HIV strain E (clinically isolated, protease mutations); format: cell-based; details: FR=EC50(mutant strain E)/EC50(HIV-1 strain LAI)
Procedure: as §1, §2

[6] = tested on: HIV strain A (clinically isolated, protease mutations); format: cell-based; details: FR=EC50(mutant strain A)/EC50(HIV-1 strain LAI)
Procedure: as §1, §2

[7] = tested on: HIV strain F (clinically isolated, protease mutations); format: cell-based; details: FR=EC50(mutant strain F)/EC50(HIV-1 strain LAI)
Procedure: as §1, §2

[8] = tested on: HIV-1 LAI; test: Protein binding analyses: anti-HIV activity in presence of serum proteins; format: cell-based; details: MT4 cells
Procedure: Human serum proteins like albumin (HSA) or α-1 acid glycoprotein (AAG) are known to bind many drugs, resulting in a possible decrease in the effectiveness of those compounds. In order to determine whether the present compounds would be adversely affected by this binding, the anti-HIV activity of the compounds was measured in the presence of human serum, thus evaluating the effect of the binding of the protease inhibitors to those proteins.
MT4 cells are infected with HIV-1 LAI at a multiplicity of infection (MOI) of 0.001-0.01 CCID50 (50% cell culture infective dose per cell, CCID50). After 1 h incubation, cells are washed and plated into a 96 well plate containing serial dilutions of the compound in the presence of 10% FCS (foetal calf serum), 10% FCS+1 mg/ml AAG (α1-acid glycoprotein), 10% FCS+45 mg/ml HSA (human serum albumin) or 50% human serum (HS). After 5 or 6 days incubation, the EC50 (50% effective concentration in cell-based assays) is calculated by determining the cell viability or by quantifying the level of HIV replication. Cell viability is measured using the assay described above. Into a 96 well plate containing serial dilutions of the compound in the presence of 10% FCS or 10% FCS+1 mg/ml AAG, HIV (wild type or resistant strain) and MT4 cells are added to a final concentration of 200-250 CCID50/well and 30,000 cells/well, respectively. After 5 days of incubation (37° C., 5% CO2), the viability of the cells is determined by the tetrazolium colorimetric MTT (3-[4,5-Dimethylthiazol-2-yl]-2,5-diphenyltetrazolium bromide) method (Pauwels et al. J Virol. Methods 1988, 20, 309-321).

[9] = in vivo, ip, 20 mg/kg
Procedure: The compounds are formulated as a 20 mg/ml solution or suspension in DMSO, PEG400 or cyclodextin 40% in water. For most experiments in the rat (male and female rats), three dosing groups are formed: 1/single intraperitoneal (IP) dose at 20 mg/kg using the DMSO formulation; 2/single oral dose at 20 mg/kg using the PEG400 formulation and 3/single oral dose at 20 mg/kg using the cyclodextrin formulation. Blood is sampled at regular time intervals after dosing and drug concentrations in the serum are determined using a LC-MS bioanalytical method. Serum concentrations are expressed in […] after normalization to 10 mg/kg. Serum concentration at 30 minutes (30′) and at 3 hours (180′) can be determined as these values reflect the extent of absorption (30′) and the speed of elimination (180′). The rat serum concentration at 30 min and 180 min following IP administration of 20 mg/kg of compound 4 are 1098 ng/ml and 553 ng/ml respectively.

[10] = in vitro; details: human
Procedure: as §1, §2

Row | Structure (SMILES) | Tox (pCC50) [1] | D (FR) fold resistance [2] | B (FR) fold resistance [3] | C (FR) fold resistance [4] | E (FR) fold resistance [5] | A (FR) fold resistance [6] | F (FR) fold resistance [7] | Ratio of the EC50 compared to FCS (10%) ([8]; AAG 1 mg/ml (10% FCS+AAG)) | Ratio of the EC50 compared to FCS (10%) ([8]; FCS (10%)) | Ratio of the EC50 compared to FCS (10%) ([8]; HS 50% (human serum)) | Ratio of the EC50 compared to FCS (10%) ([8]; HSA 45 mg/ml (10% FCS+HSA)) | rat serum concentration at 30 min [9] | rat serum concentration at 180 min [9] | CC50 at 5 days [10]
1 | CC(=O)Nc1nc2ccc(S(=O)(=O)N(CC(C)C)C[C@@H](O)[C@H](Cc3ccccc3)NC(=O)O[C@H]3CO[C@H]4OCC[C@H]43)cc2o1 [Compound 1] | <4 | 0.72 | 0.80 | 0.50 | 0.40 | 0.63 | 0.71 | 25 | 1 | 15 | 6 | – | – | –
2 | CC(C)CN(C[C@@H](O)[C@H](Cc1ccccc1)NC(=O)O[C@H]1CO[C@H]2OCC[C@H]21)S(=O)(=O)c1ccc2nc(NCCN3CCCC3)oc2c1 [Compound 4] | – | 0.47 | 1.62 | 1.70 | 0.50 | 1.95 | 3.2 | – | – | – | – | 1098 ng/mL | 553 ng/mL | –
3 | CC(C)CN(C[C@@H](O)[C@H](Cc1ccccc1)NC(=O)OCc1cncs1)S(=O)(=O)c1ccc2nc(NC(=O)c3ccncc3)oc2c1 [Compound 10] | – | 3.9 | 10.83 | 1.1 | 1.3 | 3.9 | 20 | – | – | – | – | – | – | 53.7 µM
